# Test results from the supplement of paper PMC11061612.
# Key:
# Experiment in all cases: Bliss excess, mean over the matrix (fraction); higher = more synergy
# [1] = test system: MS-1 (Small Cell Lung Carcinoma)
# In short: (§1)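 Cell lines in DMEM/F12 or RPMI with 10% FBS were plated in 1536-well plates, held 24 hours at 37°C, 5% CO2, then given two-drug dose matrices for 72 hours (DMSO typically 0.2%). Viability was read by CellTiter-Glo 2.0 luminescence and scaled as inhibition from 0 (vehicle wells) to 1 (blank wells). Combination Emax is the second-highest inhibition in the matrix; Bliss excess is observed combination effect minus expected EA + EB − EA·EB, EA and EB being single-agent effects.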
# [2] = test system: ZR-75-30 (Breast Carcinoma)
# In short: as §1
# [3] = test system: COR-L88 (Small Cell Lung Carcinoma)
# In short: as §1
# [4] = test system: HPAF-II (Pancreatic Carcinoma)
# In short: as §1
# [5] = test system: NAMALWA (Burkitt's Lymphoma)
# In short: as §1
# [6] = test system: IST-MEL1 (Melanoma)
# In short: as §1
# [7] = test system: GAK (Melanoma)
# In short: as §1
# [8] = test system: BxPC-3 (Pancreatic Carcinoma)
# In short: as §1
# [9] = test system: T84 (Colorectal Carcinoma)
# In short: as §1
# [10] = test system: IA-LM (Non-Small Cell Lung Carcinoma)
# In short: as §1
# [11] = test system: MONO-MAC-6 (Acute Myeloid Leukemia)
# In short: as §1
# [12] = test system: SCC-4 (Oral Cavity Carcinoma)
# In short: as §1
# [13] = test system: NCI-H3118 (Head and Neck Carcinoma)
# In short: as §1
# [14] = test system: SK-N-SH (Neuroblastoma)
# In short: as §1
# [15] = test system: SKG-IIIa (Cervical Carcinoma)
# In short: as §1
# [16] = test system: LS-1034 (Colorectal Carcinoma)
# In short: as §1
# [17] = test system: LCLC-103H (Non-Small Cell Lung Carcinoma)
# In short: as §1
# [18] = test system: RCC-JW (Kidney Carcinoma)
# In short: as §1
# [19] = test system: KALS-1 (Glioblastoma)
# In short: as §1
# [20] = test system: NCI-H226 (Mesothelioma)
# In short: as §1
SMILES,Bliss excess [1],Bliss excess [2],Bliss excess [3],Bliss excess [4],Bliss excess [5],Bliss excess [6],Bliss excess [7],Bliss excess [8],Bliss excess [9],Bliss excess [10],Bliss excess [11],Bliss excess [12],Bliss excess [13],Bliss excess [14],Bliss excess [15],Bliss excess [16],Bliss excess [17],Bliss excess [18],Bliss excess [19],Bliss excess [20]
"C[C@@H](Oc1cc(-c2cnn(C3CCNCC3)c2)cnc1N)c1c(Cl)ccc(F)c1Cl [Crizotinib] + CC1=C(C(=CC=C1)Cl)NC(=O)C2=CN=C(S2)NC3=CC(=NC(=N3)C)N4CCN(CC4)CCO [Dasatinib] (first compound max 10 µM, 7x7, partner max 2 µM)",-0.118,-0.0431,-0.0039,0.0578,0.0586,0.0781,-0.0786,0.035,0.0051,-0.0154,0.014,0.0487,0.0187,0.0049,0.0166,-0.0512,0.01,-0.065,0.0652,-0.0295
"CN(CCO)CC[C@H](CSc1ccccc1)Nc1ccc(S(=O)(=O)NC(=O)c2ccc(N3CCC([C@@H](O)c4ccccc4-c4ccc(Cl)cc4)CC3)cc2)cc1S(=O)(=O)C(F)(F)F [AZD4320] + Nc1ccn([C@@H]2O[C@H](CO)[C@@H](O)C2(F)F)c(=O)n1 [Gemcitabine] (first compound max 1 µM, 7x7, partner max 0.3 µM)",-0.0023,-0.0052,0.0283,-0.0087,,0.134,0.0955,-0.0248,-0.0434,0.0296,-0.0237,0.0027,-0.0638,0.0106,0.0259,-0.0357,-0.0122,-0.0025,0.0063,-0.0209
"N#Cc1cnc(Nc2cc(NC[C@H]3CNCCO3)c(C(F)(F)F)cn2)cn1 [SRA737] + O=c1[nH]cc(F)c(=O)[nH]1 [5-Fluorouracil] (first compound max 10 µM, 7x7, partner max 20 µM)",-0.0821,-0.0283,-0.0088,0.036,0.0157,-0.0223,-0.012,-0.0019,0.0458,-0.0622,0.0181,0.0952,0.0141,-0.0499,0.0284,0.0936,0.0215,-0.0355,0.0085,-0.0281
"Cc1nc(-c2cn3c(n2)-c2ccc(-c4cnn(C(C)(C)C(N)=O)c4)cc2OCC3)n(C(C)C)n1 [Taselisib] + O=C(Nc1ccc2[nH]nc(-c3ccncc3)c2c1)[C@@H]1CCN(CC(=O)N2CCN(c3ccc(-c4ncccn4)cc3)CC2)C1 [SCH772984] (first compound max 10 µM, 7x7, partner max 5 µM)",0.0145,0.0556,0.004,0.224,0.0894,0.106,0.0592,0.133,0.072,-0.0058,0.0832,0.0899,0.0633,0.0498,0.0751,0.0307,0.0056,-0.0167,-0.0253,0.0164
"CN(CCO)CC[C@H](CSc1ccccc1)Nc1ccc(S(=O)(=O)NC(=O)c2ccc(N3CCC([C@@H](O)c4ccccc4-c4ccc(Cl)cc4)CC3)cc2)cc1S(=O)(=O)C(F)(F)F [AZD4320] + CS(=O)(=O)CCNCc1ccc(-c2ccc3ncnc(Nc4ccc(OCc5cccc(F)c5)c(Cl)c4)c3c2)o1 [Lapatinib] (first compound max 1 µM, 7x7, partner max 10 µM)",0.068,0.0458,0.0911,0.031,-0.015,-0.0011,0.0059,-0.025,-0.0061,-0.0137,0.103,0.0692,0.0041,0.112,-0.0081,0.0441,-0.0224,-0.0443,0.0176,-0.0437
"N#Cc1cnc(Nc2cc(NC[C@H]3CNCCO3)c(C(F)(F)F)cn2)cn1 [SRA737] + CCc1c2c(nc3ccc(O)cc13)-c1cc3c(c(=O)n1C2)COC(=O)[C@]3(O)CC [SN-38] (first compound max 10 µM, 7x7, partner max 0.3 µM)",-0.0022,-0.0375,-0.0179,-0.0004,-0.0123,-0.0613,,-0.0428,-0.0351,-0.0646,-0.0374,0.007,-0.0085,-0.0471,0.0311,0.083,0.0442,-0.0857,0.0836,-0.0592
"C=CCn1c(=O)c2cnc(Nc3ccc(N4CCN(C)CC4)cc3)nc2n1-c1cccc(C(C)(C)O)n1 [AZD1775] + CCc1c2c(nc3ccc(O)cc13)-c1cc3c(c(=O)n1C2)COC(=O)[C@]3(O)CC [SN-38] (first compound max 1 µM, partner max 0.3 µM)",-0.0292,-0.0938,-0.0248,-0.0218,-0.0172,-0.0827,-0.0432,-0.101,0.0598,-0.0699,-0.0158,-0.0732,-0.0284,-0.019,-0.0319,0.0498,0.0015,-0.0187,0.0642,-0.0755
"O=C(c1cc(Cc2n[nH]c(=O)c3ccccc23)ccc1F)N1CCN(C(=O)C2CC2)CC1 [Olaparib] + CN(CC[C@H](CSC1=CC=CC=C1)NC2=C(C=C(C=C2)S(=O)(=O)NC(=O)C3=CC=C(C=C3)N4CCC(CC4)[C@H](C5=CC=CC=C5C6=CC=C(C=C6)Cl)O)S(=O)(=O)C(F)(F)F)CCO [AZD4320] (first compound max 10 µM, 7x7, partner max 1 µM)",0.0013,-0.0327,0.0077,-0.0399,-0.0236,-0.0373,-0.0104,-0.0424,-0.0441,0.0167,0.0291,-0.0161,-0.0182,0.0025,-0.0526,-0.0388,-0.0339,-0.0532,-0.0432,-0.047
"O=C(c1cc(Cc2n[nH]c(=O)c3ccccc23)ccc1F)N1CCN(C(=O)C2CC2)CC1 [Olaparib] + COc1nnc2ccc(N3CCC(c4ccc(OCCN5CCN(C)C(=O)[C@H]5C)cc4)CC3)nn12 [AZD5153] (first compound max 10 µM, 7x7, partner max 1 µM)",-0.0426,-0.0502,-0.0582,0.0018,-0.0519,-0.045,-0.0642,-0.106,-0.0698,-0.153,-0.0333,-0.0472,-0.0669,-0.0402,-0.0383,-0.0339,-0.0369,-0.143,-0.0141,-0.0749
"O=C(c1cc(Cc2n[nH]c(=O)c3ccccc23)ccc1F)N1CCN(C(=O)C2CC2)CC1 [Olaparib] + Cc1c2c(nn1C)CSCc1cc(n(C)n1)CSc1cc(c3ccccc3c1)OCCCc1c(C(=O)O)n(C)c3c-2c(Cl)ccc13 [AZD5991] (first compound max 10 µM, 7x7, partner max 1 µM)",-0.0481,-0.0227,0.0223,-0.0366,-0.0026,-0.0488,-0.0516,-0.066,-0.0266,-0.063,0.0434,-0.0491,-0.006,-0.0445,-0.0562,-0.0414,-0.0206,-0.0125,-0.0158,-0.0583
"C=CCn1c(=O)c2cnc(Nc3ccc(N4CCN(C)CC4)cc3)nc2n1-c1cccc(C(C)(C)O)n1 [AZD1775] + Nc1ccn([C@@H]2O[C@H](CO)[C@@H](O)C2(F)F)c(=O)n1 [Gemcitabine] (first compound max 1 µM, partner max 0.3 µM)",-0.0721,-0.0561,0.0144,0.0046,0.0247,0.0144,-0.0443,-0.029,0.0564,-0.0454,0.0322,-0.0574,-0.0638,-0.0051,0.0393,0.0159,0.0858,-0.0163,0.0299,0.0067
"N#Cc1cnc(Nc2cc(NC[C@H]3CNCCO3)c(C(F)(F)F)cn2)cn1 [SRA737] + C=CCn1c(=O)c2cnc(Nc3ccc(N4CCN(C)CC4)cc3)nc2n1-c1cccc(C(C)(C)O)n1 [AZD1775] (first compound max 10 µM, partner max 1 µM)",0.078,-0.0093,0.111,0.0176,0.0724,0.046,0.0525,0.0061,0.0022,0.0224,0.0824,0.0374,0.0583,0.0281,-0.031,0.142,0.0146,-0.002,0.0439,-0.0457
"C[C@@H]1COCCN1c1cc(C2([S@](C)(=N)=O)CC2)nc(-c2ccnc3[nH]ccc23)n1 [AZD6738] + Nc1ccn([C@@H]2O[C@H](CO)[C@@H](O)C2(F)F)c(=O)n1 [Gemcitabine] (first compound max 10 µM, 7x7, partner max 0.3 µM)",0.0014,0.0117,0.105,,0.0357,0.0314,-0.0055,0.008,0.0477,-0.027,0.0427,0.0044,0.0134,0.0248,0.0657,0.0853,0.0863,0.0928,0.0483,0.041
"N#Cc1cnc(Nc2cc(NC[C@H]3CNCCO3)c(C(F)(F)F)cn2)cn1 [SRA737] + Nc1ccn([C@@H]2O[C@H](CO)[C@@H](O)C2(F)F)c(=O)n1 [Gemcitabine] (first compound max 10 µM, 7x7, partner max 0.3 µM)",0.0566,-0.0408,-0.0293,0.0843,0.0256,-0.0023,-0.011,-0.0421,0.0819,-0.0365,0.0489,,0.0007,-0.0168,0.13,0.145,0.117,0.0179,0.0597,0.0349
